From PMC7377239, “Cardiovascular Effects of Polychlorinated Biphenyls and Their Major Metabolites” (Environmental Health Perspectives, 2020)
Where a name gives a salt, the structure may show the parent alone. Read-outs that look alike come from different tables or passages of the source.

Experiments:
HUVECs = test: Tube formation (tubulogenesis) assay in HUVECs, 18 h; type: cell-based, human; conditions: Homo sapiens, HUVEC, 18 h, HUVECs; for activity at 0.1 µM: 0.10 µM; for minimal effective concentration: top concentration 100.00 µM
Method in brief: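 HUVECs (passage 1–5) seeded on reduced-growth-factor basement membrane and exposed to compounds overnight at 37°C, 5% CO2, in 2× maintenance medium with 12.5 ng/mL VEGF; 0.5% DMSO vehicle. Calcein AM-stained tube networks imaged and analysed; vehicle-normalized readouts fit to four-parameter logistic, POD set at one SD of vehicle means.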

[1] = tested on: iCell endothelial cells (human iPSC-derived ECs); test: High-content imaging cytotoxicity in iCell endothelial cells, 24 h; type: cell-based; conditions: Homo sapiens, Endothelial cell, iPSC-EC, 24 hr; for viability at 0.1 µM / activity at 0.1 µM: 0.10 µM; for minimal effective concentration: top concentration 100.00 µM
Method in brief: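 Readouts were vehicle-normalised and fitted to a four-parameter logistic model. POD was set at one SD beyond 0.5% DMSO control means, and 100 µM was assigned when no response was seen. Cells were monolayers of iCell endothelial cells imaged after 24 h compound exposure using nuclear, mitochondrial and calcein dyes.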

[2] = 0.00 µM = 100.00, read-out: huvec.mtl.18hr
[3] = 0.00 µM = 100.00, read-out: huvec.tlps.18hr
[4] = 0.00 µM = 100.00, read-out: huvec.tta.18hr
[5] = 0.00 µM = 100.00, read-out: huvec.ttl.18hr
[6] = 0.00 µM control = 100.00, read-out: endo.cyto.24hr
[7] = 0.00 µM control = 100.00, read-out: endo.mito.24hr
[8] = 0.00 µM control = 100.00, read-out: endo.mitoint.24hr
[9] = 0.00 µM control = 100.00, read-out: endo.nma.24hr
[10] = 0.00 µM control = 100.00, read-out: endo.tc.24hrs
[11] = read-out: endo.mitoint.24hr POD

O=S(=O)(O)Oc1ccc(-c2ccc(Cl)cc2)cc1 [4'-yl PCB 3 sulfate]
activity at 0.01 µM (HUVECs; [2]): 107% | activity at 0.01 µM (HUVECs; [3]): 166% | activity at 0.01 µM (HUVECs; [4]): 116% | activity at 0.01 µM (HUVECs; [5]): 109% | activity at 0.1 µM (HUVECs; [2]): 106% | activity at 0.1 µM (HUVECs; [3]): 138% | activity at 0.1 µM (HUVECs; [4]): 140% | activity at 0.1 µM (HUVECs; [5]): 133% | activity at 1 µM (HUVECs; [2]): 117% | activity at 1 µM (HUVECs; [3]): 173% | activity at 1 µM (HUVECs; [4]): 125% | activity at 1 µM (HUVECs; [5]): 123% | activity at 10 µM (HUVECs; [2]): 93% | activity at 10 µM (HUVECs; [3]): 102% | activity at 10 µM (HUVECs; [4]): 93.4% | activity at 10 µM (HUVECs; [5]): 88.6% | activity at 100 µM (HUVECs; [2]): 57.3% | activity at 100 µM (HUVECs; [3]): 38.9% | activity at 100 µM (HUVECs; [4]): 53.2% | activity at 100 µM (HUVECs; [5]): 59.7% | minimal effective concentration (HUVECs; read-out: huvec.mtl.18hr POD): 11.2 µM | minimal effective concentration (HUVECs; read-out: huvec.tlps.18hr POD): 100 µM | minimal effective concentration (HUVECs; read-out: huvec.tta.18hr POD): 25.4 µM | minimal effective concentration (HUVECs; read-out: huvec.ttl.18hr POD): 100 µM | viability at 0.01 µM [1, 6]: 101% | activity at 0.01 µM [1, 7]: 101% | activity at 0.01 µM [1, 8]: 114% | activity at 0.01 µM [1, 9]: 99.9% | viability at 0.01 µM [1, 10]: 101% | viability at 0.1 µM [1, 6]: 101% | activity at 0.1 µM [1, 7]: 101% | activity at 0.1 µM [1, 8]: 103% | activity at 0.1 µM [1, 9]: 99.6% | viability at 0.1 µM [1, 10]: 101% | viability at 1 µM [1, 6]: 101% | activity at 1 µM [1, 7]: 101% | activity at 1 µM [1, 8]: 100% | activity at 1 µM [1, 9]: 98.8% | viability at 1 µM [1, 10]: 101% | viability at 10 µM [1, 6]: 101% | activity at 10 µM [1, 7]: 102% | activity at 10 µM [1, 8]: 98% | activity at 10 µM [1, 9]: 98.8% | viability at 10 µM [1, 10]: 101% | viability at 100 µM [1, 6]: 91.5% | activity at 100 µM [1, 7]: 91.9% | activity at 100 µM [1, 8]: 106% | activity at 100 µM [1, 9]: 104% | viability at 100 µM [1, 10]: 91.5% | minimal effective concentration ([1]; read-out: endo.cyto.24hr POD): 100 µM | minimal effective concentration ([1]; read-out: endo.mito.24hr POD): 100 µM | minimal effective concentration [1, 11]: 100 µM | minimal effective concentration ([1]; read-out: endo.nma.24hr POD): 100 µM | minimal effective concentration ([1]; read-out: endo.tc.24hrs POD): 100 µM

O=S(=O)(O)Oc1cc(Cl)c(-c2cc(Cl)ccc2Cl)cc1Cl [4-yl PCB 52 sulfate]
activity at 0.01 µM (HUVECs; [2]): 91.2% | activity at 0.01 µM (HUVECs; [3]): 86.7% | activity at 0.01 µM (HUVECs; [4]): 66.3% | activity at 0.01 µM (HUVECs; [5]): 59.7% | activity at 0.1 µM (HUVECs; [2]): 103% | activity at 0.1 µM (HUVECs; [3]): 108% | activity at 0.1 µM (HUVECs; [4]): 99.9% | activity at 0.1 µM (HUVECs; [5]): 89.7% | activity at 1 µM (HUVECs; [2]): 99% | activity at 1 µM (HUVECs; [3]): 111% | activity at 1 µM (HUVECs; [4]): 97.7% | activity at 1 µM (HUVECs; [5]): 87.2% | activity at 10 µM (HUVECs; [2]): 93.2% | activity at 10 µM (HUVECs; [3]): 84.7% | activity at 10 µM (HUVECs; [4]): 79.1% | activity at 10 µM (HUVECs; [5]): 70.9% | activity at 100 µM (HUVECs; [2]): 61.8% | activity at 100 µM (HUVECs; [3]): 26.3% | activity at 100 µM (HUVECs; [4]): 85.2% | activity at 100 µM (HUVECs; [5]): 94.3% | minimal effective concentration (HUVECs; read-out: huvec.mtl.18hr POD): 14.6 µM | minimal effective concentration (HUVECs; read-out: huvec.tlps.18hr POD): 10.1 µM | minimal effective concentration (HUVECs; read-out: huvec.tta.18hr POD): 100 µM | minimal effective concentration (HUVECs; read-out: huvec.ttl.18hr POD): 100 µM | viability at 0.01 µM [1, 6]: 99.1% | activity at 0.01 µM [1, 7]: 98.6% | activity at 0.01 µM [1, 8]: 93.7% | activity at 0.01 µM [1, 9]: 105% | viability at 0.01 µM [1, 10]: 99.1% | viability at 0.1 µM [1, 6]: 92.5% | activity at 0.1 µM [1, 7]: 92.7% | activity at 0.1 µM [1, 8]: 90.1% | activity at 0.1 µM [1, 9]: 105% | viability at 0.1 µM [1, 10]: 92.5% | viability at 1 µM [1, 6]: 95.5% | activity at 1 µM [1, 7]: 96.1% | activity at 1 µM [1, 8]: 96.9% | activity at 1 µM [1, 9]: 102% | viability at 1 µM [1, 10]: 95.5% | viability at 10 µM [1, 6]: 104% | activity at 10 µM [1, 7]: 103% | activity at 10 µM [1, 8]: 82.8% | activity at 10 µM [1, 9]: 99.1% | viability at 10 µM [1, 10]: 104% | viability at 100 µM [1, 6]: 71.2% | activity at 100 µM [1, 7]: 66.7% | activity at 100 µM [1, 8]: 92.6% | activity at 100 µM [1, 9]: 104% | viability at 100 µM [1, 10]: 71.4% | minimal effective concentration ([1]; read-out: endo.cyto.24hr POD): 41.2 µM | minimal effective concentration ([1]; read-out: endo.mito.24hr POD): 41.2 µM | minimal effective concentration [1, 11]: 100 µM | minimal effective concentration ([1]; read-out: endo.nma.24hr POD): 100 µM | minimal effective concentration ([1]; read-out: endo.tc.24hrs POD): 50.3 µM
